Assays:
PLK2 = PLK2 (Homo sapiens, UniProt Q9NYY3); assay: Kinase panel screening at InVitrogen Corporation, PLK2; conditions: screening at 10 μM compound
PLK1 = PLK1 (Homo sapiens, UniProt P53350); assay: Kinase panel screening at InVitrogen Corporation, PLK1; conditions: screening at 10 μM compound
GST-PLK1 = GST-PLK1 (Homo sapiens, UniProt P53350); assay: PLK TR-FRET peptide assay, PLK1; format: biochemical; conditions: read-out: Plk1 IC50
GST-PLK2 = target: T1, GST-PLK2 (Homo sapiens, UniProt Q9NYY3); assay: PLK TR-FRET peptide assay, PLK2; format: biochemical; conditions: for IC50: PLK TR-FRET peptide assay, GST-PLK2, read-out: Plk2 IC50
T1 construct: purchased CarnaBio
T1 sequence (Q9NYY3 whole entry): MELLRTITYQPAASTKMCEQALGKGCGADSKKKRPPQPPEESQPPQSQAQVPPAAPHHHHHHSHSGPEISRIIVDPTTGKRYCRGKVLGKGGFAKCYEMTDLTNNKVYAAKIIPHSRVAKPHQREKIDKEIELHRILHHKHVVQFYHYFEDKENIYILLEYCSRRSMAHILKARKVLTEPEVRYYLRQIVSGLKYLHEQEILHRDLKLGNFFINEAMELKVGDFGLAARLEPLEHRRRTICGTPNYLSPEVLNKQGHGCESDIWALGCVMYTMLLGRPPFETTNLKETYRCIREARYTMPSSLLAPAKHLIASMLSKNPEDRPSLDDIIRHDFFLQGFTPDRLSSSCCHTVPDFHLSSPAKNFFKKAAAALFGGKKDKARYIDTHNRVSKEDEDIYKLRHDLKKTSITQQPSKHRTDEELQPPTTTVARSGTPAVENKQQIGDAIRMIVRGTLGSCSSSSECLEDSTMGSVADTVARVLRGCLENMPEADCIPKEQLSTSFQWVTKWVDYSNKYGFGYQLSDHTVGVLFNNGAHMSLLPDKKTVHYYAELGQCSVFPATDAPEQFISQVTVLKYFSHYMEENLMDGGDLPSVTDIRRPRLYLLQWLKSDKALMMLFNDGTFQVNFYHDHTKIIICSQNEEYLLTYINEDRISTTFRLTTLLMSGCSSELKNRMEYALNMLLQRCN

GST-PLK3 = target: T2, GST-PLK3 (Homo sapiens, UniProt Q9H4B4); assay: PLK TR-FRET peptide assay, PLK3; format: biochemical; conditions: PLK TR-FRET peptide assay, GST-PLK3; read-out: Plk3 IC50
T2 construct: purchased CarnaBio
T2 sequence (Q9H4B4 whole entry): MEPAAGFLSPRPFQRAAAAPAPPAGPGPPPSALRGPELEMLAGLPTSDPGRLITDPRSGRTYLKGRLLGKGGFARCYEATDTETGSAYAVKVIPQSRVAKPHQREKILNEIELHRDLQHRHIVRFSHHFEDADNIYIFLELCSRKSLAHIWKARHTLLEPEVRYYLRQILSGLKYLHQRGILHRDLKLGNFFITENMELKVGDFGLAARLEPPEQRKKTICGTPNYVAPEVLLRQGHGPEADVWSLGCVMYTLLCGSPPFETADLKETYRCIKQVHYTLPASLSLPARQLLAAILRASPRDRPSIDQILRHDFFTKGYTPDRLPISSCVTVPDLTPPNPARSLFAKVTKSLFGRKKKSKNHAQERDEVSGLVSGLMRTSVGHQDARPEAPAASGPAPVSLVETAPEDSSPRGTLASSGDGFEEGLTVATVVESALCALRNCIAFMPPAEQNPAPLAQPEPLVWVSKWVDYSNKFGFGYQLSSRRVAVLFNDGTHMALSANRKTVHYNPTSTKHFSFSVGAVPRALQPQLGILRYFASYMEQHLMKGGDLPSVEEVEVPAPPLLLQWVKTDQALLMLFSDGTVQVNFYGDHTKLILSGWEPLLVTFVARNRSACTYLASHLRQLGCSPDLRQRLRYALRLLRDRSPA

KDR = KDR (Homo sapiens, UniProt P35968); assay: Kinase panel screening and titration, KDR
KDR, sequence (P35968 20-1356): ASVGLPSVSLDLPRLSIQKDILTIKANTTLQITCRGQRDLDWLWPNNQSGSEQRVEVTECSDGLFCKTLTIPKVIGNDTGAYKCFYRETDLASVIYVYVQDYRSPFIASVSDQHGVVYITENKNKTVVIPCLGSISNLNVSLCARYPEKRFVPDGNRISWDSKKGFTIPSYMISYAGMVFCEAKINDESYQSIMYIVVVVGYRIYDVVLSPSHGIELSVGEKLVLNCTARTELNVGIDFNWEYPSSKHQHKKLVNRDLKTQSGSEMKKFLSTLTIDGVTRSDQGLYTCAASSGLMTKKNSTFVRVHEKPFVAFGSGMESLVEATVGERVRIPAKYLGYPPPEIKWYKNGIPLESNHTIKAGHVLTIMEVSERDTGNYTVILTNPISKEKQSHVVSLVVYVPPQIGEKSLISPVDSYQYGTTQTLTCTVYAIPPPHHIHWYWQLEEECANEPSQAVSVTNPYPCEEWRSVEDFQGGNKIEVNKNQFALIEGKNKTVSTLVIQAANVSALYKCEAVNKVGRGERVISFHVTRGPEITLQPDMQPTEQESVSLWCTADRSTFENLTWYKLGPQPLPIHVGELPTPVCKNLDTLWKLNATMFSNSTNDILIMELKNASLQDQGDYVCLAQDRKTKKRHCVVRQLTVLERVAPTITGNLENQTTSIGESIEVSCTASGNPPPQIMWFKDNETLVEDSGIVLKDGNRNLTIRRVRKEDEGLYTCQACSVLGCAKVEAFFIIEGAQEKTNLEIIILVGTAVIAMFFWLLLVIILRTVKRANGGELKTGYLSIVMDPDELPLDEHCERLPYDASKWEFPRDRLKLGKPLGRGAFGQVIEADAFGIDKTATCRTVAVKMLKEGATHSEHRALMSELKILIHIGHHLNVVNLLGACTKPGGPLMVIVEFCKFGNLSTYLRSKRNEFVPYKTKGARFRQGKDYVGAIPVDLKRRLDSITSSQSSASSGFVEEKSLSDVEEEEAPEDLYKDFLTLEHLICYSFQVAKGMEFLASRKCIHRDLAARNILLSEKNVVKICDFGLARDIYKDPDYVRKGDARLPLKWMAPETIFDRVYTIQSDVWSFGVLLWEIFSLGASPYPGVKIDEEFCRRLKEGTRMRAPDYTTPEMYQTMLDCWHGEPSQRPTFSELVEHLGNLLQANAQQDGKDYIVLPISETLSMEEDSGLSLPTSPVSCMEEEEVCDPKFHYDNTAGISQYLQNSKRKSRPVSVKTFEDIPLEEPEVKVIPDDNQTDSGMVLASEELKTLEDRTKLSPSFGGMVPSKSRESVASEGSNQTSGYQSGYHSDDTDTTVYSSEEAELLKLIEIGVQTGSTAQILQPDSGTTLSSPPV

ABL1 = ABL1 (Homo sapiens, UniProt P00519); assay: Kinase panel screening and titration, ABL1
ABL1, sequence (P00519 whole entry): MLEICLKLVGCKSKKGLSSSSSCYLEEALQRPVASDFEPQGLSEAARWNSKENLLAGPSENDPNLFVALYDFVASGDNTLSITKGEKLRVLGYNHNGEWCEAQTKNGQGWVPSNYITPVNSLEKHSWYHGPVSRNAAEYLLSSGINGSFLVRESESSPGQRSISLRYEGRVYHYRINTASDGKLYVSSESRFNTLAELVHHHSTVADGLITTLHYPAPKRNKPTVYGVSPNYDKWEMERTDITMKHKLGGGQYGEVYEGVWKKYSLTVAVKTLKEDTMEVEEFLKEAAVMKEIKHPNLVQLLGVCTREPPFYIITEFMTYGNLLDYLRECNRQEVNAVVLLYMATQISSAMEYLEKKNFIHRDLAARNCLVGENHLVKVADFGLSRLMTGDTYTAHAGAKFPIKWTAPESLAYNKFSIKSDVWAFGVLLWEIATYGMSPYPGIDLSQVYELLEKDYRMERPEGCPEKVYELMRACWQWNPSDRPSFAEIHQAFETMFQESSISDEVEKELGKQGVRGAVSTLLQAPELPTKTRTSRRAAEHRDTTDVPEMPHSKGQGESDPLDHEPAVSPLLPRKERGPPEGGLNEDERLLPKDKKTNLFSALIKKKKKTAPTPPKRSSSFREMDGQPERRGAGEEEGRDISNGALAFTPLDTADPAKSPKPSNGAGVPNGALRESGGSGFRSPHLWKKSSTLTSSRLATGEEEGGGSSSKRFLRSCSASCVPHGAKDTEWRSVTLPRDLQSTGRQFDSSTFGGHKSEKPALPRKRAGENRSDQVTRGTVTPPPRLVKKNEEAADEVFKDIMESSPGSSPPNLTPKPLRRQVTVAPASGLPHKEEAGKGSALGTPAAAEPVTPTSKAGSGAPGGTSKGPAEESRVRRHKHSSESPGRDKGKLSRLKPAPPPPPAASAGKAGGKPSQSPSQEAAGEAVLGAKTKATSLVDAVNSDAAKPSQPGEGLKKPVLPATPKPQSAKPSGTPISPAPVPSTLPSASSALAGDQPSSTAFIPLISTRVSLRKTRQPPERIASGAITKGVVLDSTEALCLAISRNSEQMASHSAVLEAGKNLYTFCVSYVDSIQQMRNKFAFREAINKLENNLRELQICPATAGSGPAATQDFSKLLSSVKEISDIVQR

[1] = tested on: over 300 kinases, including CDK-1, CDK-2, CDK-5, CLK-1, CLK-2, CLK-3, CLK-4, NEK-1, NEK-2, NEK-4, NEK-6, NEK-7, MAP4K4 and STK16; assay: Kinase panel screening at InVitrogen Corporation, over 300 kinases; conditions: 10 μM compound; all but 21 of over 300 kinases, including CDK-1, CDK-2, CDK-5, CLK-1 to CLK-4, NEK-1, -2, -4, -6, -7, MAP4K4, STK16

PLK2, sequence (Q9NYY3 whole entry): as the sequence (Q9NYY3 whole entry) above
GST-PLK1, sequence (P53350 whole entry): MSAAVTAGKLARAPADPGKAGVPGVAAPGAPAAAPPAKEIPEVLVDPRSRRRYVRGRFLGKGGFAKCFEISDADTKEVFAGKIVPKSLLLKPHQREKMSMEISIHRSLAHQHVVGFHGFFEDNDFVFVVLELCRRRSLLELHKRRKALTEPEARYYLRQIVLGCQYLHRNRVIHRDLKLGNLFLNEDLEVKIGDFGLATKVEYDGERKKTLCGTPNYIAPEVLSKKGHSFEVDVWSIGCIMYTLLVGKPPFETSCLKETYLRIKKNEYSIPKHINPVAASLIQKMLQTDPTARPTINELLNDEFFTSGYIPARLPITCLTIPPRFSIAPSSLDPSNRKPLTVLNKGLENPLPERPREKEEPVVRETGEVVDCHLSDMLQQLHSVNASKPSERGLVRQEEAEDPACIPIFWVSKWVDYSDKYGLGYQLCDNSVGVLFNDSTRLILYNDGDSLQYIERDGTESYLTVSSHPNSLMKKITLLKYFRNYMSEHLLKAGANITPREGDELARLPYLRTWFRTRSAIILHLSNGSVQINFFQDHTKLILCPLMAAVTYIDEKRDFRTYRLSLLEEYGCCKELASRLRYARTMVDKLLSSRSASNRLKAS
PLK1, sequence (P53350 whole entry): as above

Row | SMILES | IC50 (GST-PLK1) | IC50 (GST-PLK2) | IC50 (GST-PLK3) | also measured
1 | CC[C@@H]1C(=O)N(C)c2cnc(-n3ccnc3-c3ccccc3)nc2N1C1CCCC1 [Example 26, (R)-8-cyclopentyl-7-ethyl-5-methyl-2-(2-phenyl-1H-imidazol-1-yl)-7,8-dihydropteridin-6(5H)-one] | – | – | – | activity against PLK2 in kinase panel (PLK2): potent
2 | CC[C@@H]1C(=O)N(C)c2cnc(-n3ccnc3-c3cscn3)nc2N1C1CCCC1 [Example 68] | – | – | – | activity against PLK1 in kinase panel (PLK1): potent; activity against PLK2 in kinase panel (PLK2): potent
3 | CC[C@@]12CCCN1c1nc(-n3ccnc3-c3ccccc3)ncc1N(C)C2=O [Example 76, (S)-6a-ethyl-5-methyl-2-(2-phenyl-1H-imidazol-1-yl)-6a,7,8,9-tetrahydropyrrolo[2,1-h]pteridin-6(5H)-one] | 10000 to 50000 nM | < 1000 nM | 1000 to 10000 nM | activity against PLK1 in kinase panel (PLK1): potent; activity against PLK2 in kinase panel (PLK2): potent
4 | CC[C@@H]1C(=O)N(C)c2cnc(-c3ccncc3-c3ccccc3)nc2N1C(C)C [Example 110, (R)-7-ethyl-8-isopropyl-5-methyl-2-(3-phenylpyridin-4-yl)-7,8-dihydropteridin-6(5H)-one] | < 1000 nM | < 1000 nM | < 1000 nM | –
5 | CC[C@@]12COCCN1c1nc(-c3cccnc3-c3ccccc3)ncc1N(C)C2=O [Example 403, (S)-6a-ethyl-5-methyl-2-(2-phenylpyridin-3-yl)-6a,7,9,10-tetrahydro-[1,4]oxazino[3,4-h]pteridin-6(5H)-one] | 10000 to 50000 nM | < 1000 nM | 1000 to 10000 nM | –
6 | CC[C@@H]1C(=O)N(C)c2cnc(-n3ccc(C(N)=O)n3)nc2N1C1CCCC1 [Example 63, (R)-1-(8-cyclopentyl-7-ethyl-5-methyl-6-oxo-5,6,7,8-tetrahydropteridin-2-yl)-1H-pyrazole-3-carboxamide] | 1000 to 10000 nM | < 1000 nM | 1000 to 10000 nM | –
7 | CC[C@@H]1C(=O)N(C)c2cnc(-n3ccc(C(=O)O)n3)nc2N1C1CCCC1 [Example 56, (R)-1-(8-cyclopentyl-7-ethyl-5-methyl-6-oxo-5,6,7,8-tetrahydropteridin-2-yl)-1H-pyrazole-3-carboxylic acid] | 1000 to 10000 nM | < 1000 nM | 10000 to 50000 nM | –
8 | CC[C@@H]1C(=O)N(C)c2cnc(-n3ccnc3-c3ccccn3)nc2N1C(C)C [Example 153, (R)-7-ethyl-8-isopropyl-5-methyl-2-(2-(pyridin-2-yl)-1H-imidazol-1-yl)-7,8-dihydropteridin-6(5H)-one] | 1000 to 10000 nM | < 1000 nM | 1000 to 10000 nM | –
9 | CC[C@@H]1C(=O)N(C)c2cnc(-c3cncnc3-c3ccccc3)nc2N1C1CCCC1 [Example 132, (R)-8-cyclopentyl-7-ethyl-5-methyl-2-(4-phenylpyrimidin-5-yl)-7,8-dihydropteridin-6(5H)-one] | < 1000 nM | < 1000 nM | < 1000 nM | –
10 | CC[C@@H]1C(=O)N(C)c2cnc(-c3cnncc3-c3ccccc3)nc2N1C1CCCC1 [Example 139, (R)-8-cyclopentyl-7-ethyl-5-methyl-2-(5-phenylpyridazin-4-yl)-7,8-dihydropteridin-6(5H)-one] | < 1000 nM | < 1000 nM | < 1000 nM | –
11 | CC[C@@H]1C(=O)N(C)c2cnc(-n3ccnc3-c3cnccn3)nc2N1C1CCOCC1 [Example 140, (R)-7-ethyl-5-methyl-2-(2-(pyrazin-2-yl)-1H-imidazol-1-yl)-8-(tetrahydro-2H-pyran-4-yl)-7,8-dihydropteridin-6(5H)-one] | 1000 to 10000 nM | < 1000 nM | > 50000 nM | –
12 | CC[C@@]12CN(C)CCN1c1nc(-n3ccnc3-c3ccccc3)ncc1N(C)C2=O [Example 374, (S)-6a-ethyl-5,8-dimethyl-2-(2-phenyl-1H-imidazol-1-yl)-'7,8,9,10-tetrahydro-5H-pyrazino[2,1-h]pteridin-6(6aH)-one] | > 50000 nM | < 1000 nM | 10000 to 50000 nM | PLK2 activity relative to the opposite enantiomer / other isomer (GST-PLK2; comparison of resolved enantiomers, used to assign absolute configuration): more active compound
13 | CCC1C(=O)N(C)c2cnc(-c3cn[nH]c3-c3nccs3)nc2N1c1cnn(CC2CC2)c1 (stereo not shown) [Example 400, 8-(1-(cyclopropylmethyl)-1H-pyrazol-4-yl)-7-ethyl-5-methyl-2-(5-(thiazol-2-yl)-1H-pyrazol-4-yl)-7,8-dihydropteridin-6(5H)-one] | 1000 to 10000 nM | < 1000 nM | 1000 to 10000 nM | –
14 | CC[C@@H]1C(=O)N(C)c2cnc(-n3ccnc3-c3cccc(F)c3)nc2N1C1CCOC1 (stereo partly shown) [Example 192] | – | – | – | percent inhibition of KDR (KDR; 10 μM compound): greater than 80%; IC50 (KDR; read-out: IC50 KDR, when titrated): > 10000 nM; percent inhibition of ABL1 (ABL1; 10 μM compound): greater than 80%; IC50 (ABL1; read-out: IC50 ABL1, when titrated): > 10000 nM; activity against PLK1 in kinase panel (PLK1): potent; activity against PLK2 in kinase panel (PLK2): potent; percent inhibition of kinase [1]: below 40%
15 | CCOC(=O)c1cnn(-c2ncc3c(n2)N(C2CCCC2)[C@H](CC)C(=O)N3C)c1 [Example 18, (R)-ethyl 1-(8-cyclopentyl-7-ethyl-5-methyl-6-oxo-5,6,7,8-tetrahydropteridin-2-yl)-1H-pyrazole-4-carboxylate] | < 1000 nM | 1000 to 10000 nM | 10000 to 50000 nM | –
16 | CC[C@@H]1C(=O)N(C)c2cnc(-n3ncnc3-c3ccccc3)nc2N1C1CCCC1 [Example 135, (R)-8-cyclopentyl-7-ethyl-5-methyl-2-(5-phenyl-1H-1,2,4-triazol-1-yl)-7,8-dihydropteridin-6(5H)-one] | < 1000 nM | < 1000 nM | < 1000 nM | –
17 | CC[C@@]12CCCN1c1nc(-n3ccnc3-c3ccccn3)ncc1N(C)C2=O [Example 145, (S)-6a-ethyl-5-methyl-2-(2-(pyridin-2-yl)-1H-imidazol-1-yl)-6a,7,8,9-tetrahydropyrrolo[2,1-h]pteridin-6(5H)-one] | 10000 to 50000 nM | 1000 to 10000 nM | 10000 to 50000 nM | –
18 | CC[C@@H]1C(=O)N(C)c2cnc(-n3cnc(C(=O)N4CCOCC4)c3)nc2N1C1CCCC1 [Example 45, (R)-8-cyclopentyl-7-ethyl-5-methyl-2-(4-(morpholine-4-carbonyl)-1H-imidazol-1-yl)-7,8-dihydropteridin-6(5H)-one] | 1000 to 10000 nM | < 1000 nM | 10000 to 50000 nM | –
19 | CC[C@@H]1C(=O)N(C)c2cnc(-c3cn[nH]c3-c3ccccc3)nc2N1C1CCCC1 [Example 134, (R)-8-cyclopentyl-7-ethyl-5-methyl-2-(5-phenyl-1H-pyrazol-4-yl)-7,8-dihydropteridin-6(5H)-one] | < 1000 nM | < 1000 nM | < 1000 nM | –
20 | CC[C@@H]1C(=O)N(C)c2cnc(-c3cnsc3-c3ccc(F)cc3)nc2N1C(C)C [Example 296, (R)-7-ethyl-2-(5-(4-fluorophenyl)isothiazol-4-yl)-8-isopropyl-5-methyl-7,8-dihydropteridin-6(5H)-one] | < 1000 nM | < 1000 nM | 1000 to 10000 nM | –
21 | CC[C@@H]1C(=O)N(C)c2cnc(-n3cnc(C(=O)OC)c3)nc2N1C1CCCC1 [Example 38, (R)-methyl 1-(8-cyclopentyl-7-ethyl-5-methyl-6-oxo-5,6,7,8-tetrahydropteridin-2-yl)-1H-imidazole-4-carboxylate] | < 1000 nM | 1000 to 10000 nM | 1000 to 10000 nM | –
22 | CC[C@@H]1C(=O)N(C)c2cnc(-n3ccnc3Br)nc2N1C1CCCC1 [Example 65, (R)-2-(2-bromo-1H-imidazol-1-yl)-8-cyclopentyl-7-ethyl-5-methyl-7,8-dihydropteridin-6(5H)-one] | < 1000 nM | < 1000 nM | 10000 to 50000 nM | –
23 | CC[C@@H]1C(=O)N(C)c2cnc(-n3cnc(Br)c3)nc2N1C1CCCC1 [Example 43, (R)-2-(4-bromo-1H-imidazol-1-yl)-8-cyclopentyl-7-ethyl-5-methyl-7,8-dihydropteridin-6(5H)-one] | < 1000 nM | < 1000 nM | 10000 to 50000 nM | –

— US8445503B2, “Inhibitors of polo-like kinase” (Elan Pharmaceuticals, Inc., priority 2009, dated 2013)
